Paper PMC6021032, “Antimycobacterial activity of nitrogen heterocycles derivatives: 7-(pyridine-4-yl)-indolizine derivatives. Part VII^8–12” (Journal of Enzyme Inhibition and Medicinal Chemistry, 2017)

Assays:
Mtb H37Rv = test: LORA parallel plates, oxygen-deprived bacteria incubated under aerobic conditions (normal oxygen); assay type: cell-based, Mycobacterium tuberculosis
Mycobacterium abscessus = test: MIC, IC50, IC90 against nontuberculous mycobacteria (OD590); assay type: cell-based; conditions: M. abscessus
[1] = test system: Mycobacterium tuberculosis H37Rv; test: Primary screen (Cycle 1): MIC, IC50, IC90 under aerobic conditions; assay type: cell-based
Mycobacterium avium = test: MIC against nontuberculous mycobacteria (Alamar blue); assay type: cell-based; conditions: M. avium
M. tuberculosis H37Rv = test: Cycle 2 repeat of MIC, IC50, IC90 under aerobic conditions (lower starting concentrations); assay type: cell-based, Mycobacterium tuberculosis; conditions: revaluation
[2] = test system: THP-1 human monocytic cell line; test: Cytotoxicity, THP-1 cell viability (CellTiter-Glo); conditions: read-out: Cytotoxicity IC50; THP-1 cells, 50% loss in viability, 3 days
[3] = test system: THP-1 cell line infected with Mtb; test: Intracellular activity assay, luminescence; assay type: cell-based, Mycobacterium tuberculosis; conditions: Mtb-infected THP-1 cells, 72 h
Experimental: Since the overall efficacy of any anti TB drug will be improved by its ability to traffic into the macrophage phagosome containing replicating bacteria, we evaluated the intracellular activity of compounds[24]. This was measured by using THP-1 cell line infected with Mtb. Infected cells were exposed to compounds for 72 h and viable bacterial counts were measured using luminescence as a measure of intracellular growth.
Assay (Promega) which uses ATP as an indicator of cell viability. Relative luminescent units (RLU) were measured using a Biotek Synergy 4 plate reader. The dose response curve was fitted using the Levenberg–Marquardt algorithm. The IC50 was defined as the compound […]
Intracellular Activity Assay
The activity of compounds against intracellular bacteria was determined by measuring viability in infected THP-1 cell after 3 days in the presence of test compounds. Compounds were prepared as 10-point three-fold serial dilutions in DMSO. The highest concentration of […]
THP-1 cells were cultured in complete RPMI and differentiated into macrophage-like cells using 80 nM PMA overnight at 37°C, 5% CO2. THP-1 cells were infected with a luminescent strain of H37Rv (which constitutively expresses luxABCDE) at a multiplicity of infection of 1 and incubated overnight at 37°C, 5% CO2. Infected cells were recovered using Accutase/EDTA solution, washed twice with PBS to remove extracellular bacteria and seeded into assay pates. Compound dilutions were added to a final DMSO concentration of 0.5%.
Assay plates were incubated for 72 h at 37°C, 5% CO2. Each run included isoniazid as a control. Relative luminescent units (RLU) were measured using a Biotek Synergy 2 plate reader. The dose response curve was fitted using the Levenberg–Marquardt algorithm. The […]
inhibition of growth respectively.
3. Cycle 3 – Absorption, distribution, metabolism, excretion and toxicity (ADMET)
3.1. Plasma Protein Binding Assay
Compounds were added to human plasma at a fixed concentration of 5 µM. The mixture was dialyzed in a RED device (Rapid Equilibrium Dialysis, Pierce) against PBS and incubated on an orbital shaker for 4 h at 37 °C. Aliquots from plasma and PBS sides were collected; an equal volume of PBS was added to the plasma sample, and an equal volume of plasma was added to the PBS sample. Three volumes of methanol (containing the internal binding standard propranolol) was added to precipitate the proteins and release the compound.
Each compound was tested in duplicate. Samples were centrifuged, the supernatant was […]

in vitro = conditions: human
[4] = M. tuberculosis H37Rv, aerobic conditions, primary screen

| Compound | IC50 (Mtb H37Rv) [µM] | IC90 (Mtb H37Rv) [µM] | MIC (Mtb H37Rv; oxygen-deprived bacteria, aerobic 5 d) [µM] | IC50 (Mycobacterium abscessus) [µM] | IC90 (Mycobacterium abscessus) [µM] | IC50 [1, 4] [µM] | IC90 [1, 4] [µM] | MIC [1, 4] [µM] | MIC ([1]; MIC value taken from the first MIC assay) [µM] | MIC (Mycobacterium avium) [µM] | IC50 (M. tuberculosis H37Rv; aerobic) [µM] | IC90 (M. tuberculosis H37Rv; aerobic) [µM] | MIC (M. tuberculosis H37Rv; repeated at lower starting concentrations, read-out: MIC aerobic condition) [µM] | IC50 [2] [µM] | IC50 ([3]; read-out: IC50 intracell) [µM] | IC90 ([3]; read-out: IC90 intracell) [µM] | recovery at 4 h, 5 µM (in vitro) [%] |
| --- | --- | --- | --- | --- | --- | --- | --- | --- | --- | --- | --- | --- | --- | --- | --- | --- | --- |
| 4-[3-(4-Chlorophenyl)-1-(ethoxycarbonyl)indolizine-7-yl)-1-(2-(4-methoxyphenyl)-2-oxoethyl)pyridine-1-ium bromide [Compound 6c] | 8.1 | 23 | 75 | 16 | 21 | 12 | 14 | 15 | 15 | 50 | 6.7 | 9.5 | 9.5 | 4.1 | 7 | 34 |  |
| CC(=O)CC(c1ccccc1)c1c(O)c2ccccc2oc1=O (centres unmarked) [Warfarin] |  |  |  |  |  |  |  |  |  |  |  |  |  |  |  |  | 96.7 |
